Literature values, collected in patent US20140271890A1, “CONTROLLED-RELEASE PHARMACEUTICAL COMPOSITION” (priority 2013, published 2014).

Conditions: mean dose between 5 and 10 mg in a conventional formulation

Cc1ccc(-c2nc3ccc(C)cn3c2CC(=O)N(C)C)cc1 [Zolpidem]
duration of action: up to 6 hours
